One data set addresses Acetylcholinesterase (Homo sapiens, UniProt P22303). Nature of the data set: Inhibition of human AChE pre-incubated for 10 mins before acetylthiocholine iodide substrate addition.
Another data set relates to Bacillus subtilis. Nature of the data set: Antimicrobial activity against Bacillus subtilis DSM 347 incubated for 5 hrs by resazurin dye based assay. The format is functional, organism-based. As to conditions: DSM 347, 5 h.
Data set [1] can be described thus: Toxicity against human KIF5 cells incubated for 24 hrs by CellTiter Blue cell viability assay. The format is cell-based.
The test system of the next data set is Candida albicans. Nature of the data set: Antimicrobial activity against Candida albicans DSM 1386 incubated for 5 hrs by resazurin dye based assay. The format is functional, organism-based.
In a further data set the test system is Xanthomonas campestris. The experiment in a line: Antimicrobial activity against Xanthomonas campestris DSM 2405 incubated for 6 hrs by resazurin dye based assay. The format is functional, organism-based.

In ChEMBL document CHEMBL2069170, “Geranylphenazinediol, an acetylcholinesterase inhibitor produced by a Streptomyces species” (J Nat Prod, 2012) one finds IC50 and Activity data, which are given here for 9 molecules.

Active and inactive are the calls of the source. The calls are words filed in the database; no cut-off is given here. Bounds are passed on as bounds.

Chain of Acetylcholinesterase (P22303 whole entry): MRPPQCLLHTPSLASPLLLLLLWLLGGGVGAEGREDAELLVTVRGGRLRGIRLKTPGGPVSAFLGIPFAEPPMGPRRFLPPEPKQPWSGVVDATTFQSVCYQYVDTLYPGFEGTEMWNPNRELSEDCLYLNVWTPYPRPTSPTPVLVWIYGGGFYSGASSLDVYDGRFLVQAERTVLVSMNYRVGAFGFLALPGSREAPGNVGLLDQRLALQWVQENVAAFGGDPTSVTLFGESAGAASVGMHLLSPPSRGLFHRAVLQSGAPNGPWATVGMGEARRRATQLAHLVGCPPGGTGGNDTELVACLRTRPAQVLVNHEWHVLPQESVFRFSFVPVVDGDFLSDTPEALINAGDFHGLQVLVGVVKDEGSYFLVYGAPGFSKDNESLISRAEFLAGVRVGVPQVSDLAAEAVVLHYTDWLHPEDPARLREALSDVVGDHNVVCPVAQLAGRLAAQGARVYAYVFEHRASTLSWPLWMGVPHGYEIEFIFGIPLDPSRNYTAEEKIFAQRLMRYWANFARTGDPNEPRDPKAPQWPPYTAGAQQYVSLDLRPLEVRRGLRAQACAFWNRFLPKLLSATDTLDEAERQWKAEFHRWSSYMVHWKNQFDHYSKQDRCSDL

For `Oc1cccc2nc3c(O)cccc3nc12`, the values for the 50% inhibitory concentration (IC50) at Acetylcholinesterase and with Bacillus subtilis were 4.52 µM and 22 µM, respectively. The same molecule gave an IC50 at 24 h in data set [1] above 50 µM.
On the same counts, the results for `Oc1ccc2nc3ccccc3nc2c1` are above 50 µM, 75 µM and above 50 µM.
Molecule `O=C(N[C@H](CO)[C@H](O)c1ccc([N+](=O)[O-])cc1)C(Cl)Cl` [CHLORAMPHENICOL] registered an IC50 with Bacillus subtilis of 1.45 µM.
As for `CC(=O)Oc1cccc2nc3c(OC(C)=O)ccc(C/C=C(\C)CCC=C(C)C)c3nc12` [DIACETYLGERANYLPHENAZINEDIOL], the results for the IC50 against Acetylcholinesterase and with Bacillus subtilis were 2.01 µM and 13 µM, respectively. This molecule also gave an IC50 at 24 h in data set [1] above 50 µM. Further, the outcome in the data set on Candida albicans and in the data set with Xanthomonas campestris was inactive.
For the molecule `CC(C)=CCc1cccc2nc3cccc(C(=O)O)c3nc12` [ENDOPHENAZINE A], the IC50 was above 50 µM against Acetylcholinesterase and 111 µM in the data set with Bacillus subtilis. The molecule also registered an IC50 at 24 h in data set [1] above 10 µM.
The matching figures for `CC(C)=CCc1cc(=O)cc2n(C)c3cccc(C(=O)O)c3nc1-2` [ENDOPHENAZINE B]: above 50 µM, above 150 µM and above 50 µM.
As to `CC(C)=CCC/C(C)=C/Cc1ccc(O)c2nc3cccc(O)c3nc12` [GERANYLPHENAZINEDIOL], the IC50 on Acetylcholinesterase stood at 2.62 µM; in the data set with Bacillus subtilis, 24 µM. The molecule also returned an IC50 at 24 h in data set [1] above 50 µM. For the same molecule, the result in the data set on Candida albicans and in the data set with Xanthomonas campestris was inactive.
Regarding `O=C(O)c1cccc2nc3ccccc3nc12` [PHENAZINE-1-CARBOXYLIC ACID], the values for the half-maximal inhibitory concentration (IC50) at Acetylcholinesterase and with Bacillus subtilis were above 50 µM and above 150 µM, respectively. This molecule also registered an IC50 at 24 h in data set [1] above 50 µM.
As for `CC/C(=C(\c1ccccc1)c1ccc(OCCN(C)C)cc1)c1ccccc1` [TAMOXIFEN], the IC50 at 24 h in data set [1] amounted to 23.8 µM.
